Measured values published in the supplement of paper PMC10307832.

Key:
Assay in all cases: relative viability (nuclei count vs DMSO), 5 days (fraction); higher = more cells survive
[1] = compound: Cc1ccccc1C(C(=O)NC1CCCCC1)N(C(=O)Cn1ccnc1C)c1cccc(F)c1 [IDH-C35] + Cc1cc(Nc2cc(N3CCN(C)CC3)nc(Sc3ccc(NC(=O)C4CC4)cc3)n2)n[nH]1 [Tozasertib] (partner 0.1 µM)
How it was run: (§1)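 Relative viability is defined as nuclei in treated wells over nuclei in vehicle wells. Duplicate plates were run and medians reported. Lung cancer cell lines in 1536-well plates were dosed by pin tool one day after seeding, with one drug or with a fixed anchor-drug dose plus five library-drug doses (not always all listed) in √10 steps, and nuclei were counted after 5 days.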

[2] = compound: Cc1ccccc1C(C(=O)NC1CCCCC1)N(C(=O)Cn1ccnc1C)c1cccc(F)c1 [IDH-C35] + N=C(N)NC(=N)NCCc1ccccc1 [Phenformin] (partner 250 µM)
How it was run: as §1

[3] = compound: Cc1ccccc1C(C(=O)NC1CCCCC1)N(C(=O)Cn1ccnc1C)c1cccc(F)c1 [IDH-C35] + CC(=O)c1c(C)c2cnc(Nc3ccc(N4CCNCC4)cn3)nc2n(C2CCCC2)c1=O [Palbociclib] (partner 0.5 µM)
How it was run: as §1

[4] = compound: Cc1ccccc1C(C(=O)NC1CCCCC1)N(C(=O)Cn1ccnc1C)c1cccc(F)c1 [IDH-C35] + Cc1nc(NC(=O)N2CCC[C@H]2C(N)=O)sc1-c1ccnc(C(C)(C)C(F)(F)F)c1 [Alpelisib] (partner 2 µM)
How it was run: as §1

Row | Cell Line | relative viability ([1]; first compound 0.08 µM) | relative viability ([1]; first compound 0.253 µM) | relative viability ([1]; first compound 0.8 µM) | relative viability ([1]; first compound 2.53 µM) | relative viability ([1]; first compound 8 µM) | relative viability ([2]; first compound 0.08 µM) | relative viability ([2]; first compound 0.253 µM) | relative viability ([2]; first compound 0.8 µM) | relative viability ([2]; first compound 2.53 µM) | relative viability ([2]; first compound 8 µM) | relative viability ([3]; first compound 0.08 µM) | relative viability ([3]; first compound 0.253 µM) | relative viability ([3]; first compound 0.8 µM) | relative viability ([3]; first compound 2.53 µM) | relative viability ([3]; first compound 8 µM) | relative viability ([4]; first compound 0.08 µM) | relative viability ([4]; first compound 0.253 µM) | relative viability ([4]; first compound 0.8 µM) | relative viability ([4]; first compound 2.53 µM) | relative viability ([4]; first compound 8 µM)
1 | NCI-H23 | 0.325 | 0.399 | 0.414 | 0.313 | 0.406 | 0.824 | 0.746 | 0.788 | 0.756 | 0.705 | 0.55 | 0.494 | 0.43 | 0.525 | 0.538 | 0.622 | 0.591 | 0.648 | 0.73 | 0.834
2 | NCI-H322M | 0.46 | 0.494 | 0.466 | 0.467 | 0.517 | 0.761 | 0.798 | 0.772 | 0.749 | 0.743 | 0.523 | 0.48 | 0.493 | 0.493 | 0.49 | 0.878 | 0.818 | 0.743 | 0.806 | 0.837
3 | NCI-H358 | 0.099 | 0.112 | 0.112 | 0.0888 | 0.0934 | 0.366 | 0.33 | 0.337 | 0.388 | 0.328 | 0.134 | 0.131 | 0.146 | 0.148 | 0.123 | 0.916 | 0.871 | 0.746 | 0.857 | 0.915
4 | NCI-H441 | 0.597 | 0.561 | 0.623 | 0.624 | 0.583 | 1.07 | 0.866 | 0.72 | 1.01 | 0.807 | 0.183 | 0.238 | 0.254 | 0.242 | 0.224 | 0.649 | – | 0.688 | 0.684 | 0.754
5 | NCI-H460 | 0.614 | 0.396 | 0.493 | 0.336 | 0.412 | 0.547 | 0.527 | 0.502 | 0.488 | 0.531 | 0.23 | 0.231 | 0.194 | 0.233 | 0.12 | 0.472 | 0.504 | 0.545 | 0.549 | 0.439
6 | NCI-H520 | 0.327 | 0.427 | 0.54 | 0.405 | 0.409 | 0.588 | 0.665 | 0.652 | 0.525 | 0.699 | 0.206 | 0.268 | 0.215 | 0.225 | 0.23 | 0.71 | 0.808 | 0.891 | 0.845 | 0.954
7 | NCI-H647 | 0.29 | 0.244 | 0.21 | 0.261 | 0.284 | 0.425 | 0.446 | 0.626 | 0.55 | 0.491 | 0.47 | 0.433 | 0.399 | 0.347 | 0.397 | 1.14 | 1.23 | 1.14 | 1.12 | 0.917
8 | NCI-H650 | 0.669 | 0.765 | 0.768 | – | 0.698 | 0.453 | 0.465 | 0.505 | – | 0.421 | 0.311 | 0.343 | 0.339 | – | 0.283 | 1.07 | 1.13 | 1.17 | – | 1.03
9 | NCI-H661 | 0.326 | 0.358 | 0.372 | 0.346 | 0.355 | 0.305 | 0.275 | 0.307 | 0.28 | 0.266 | 0.433 | 0.407 | 0.392 | 0.41 | 0.384 | 0.589 | 0.852 | 0.529 | 0.689 | 0.711
10 | NCI-H727 | 0.49 | 0.61 | 0.647 | 0.606 | 0.558 | 0.471 | 0.525 | 0.509 | 0.493 | 0.579 | 0.671 | 0.663 | 0.673 | 0.66 | 0.574 | 0.536 | 0.719 | 0.543 | 0.582 | 0.83
11 | NCI-H838 | 0.249 | 0.276 | 0.292 | 0.281 | 0.234 | 0.729 | 0.599 | 0.502 | 0.659 | 0.543 | 0.24 | 0.223 | 0.229 | 0.22 | 0.211 | 1.03 | 0.92 | 0.951 | 0.93 | 0.949
12 | NCI-H1355 | 0.538 | 0.606 | 0.601 | 0.526 | 0.502 | 0.52 | 0.438 | 0.424 | 0.466 | 0.395 | 0.438 | 0.4 | 0.393 | 0.427 | 0.388 | 0.894 | 0.787 | 0.801 | 0.864 | 0.849
13 | NCI-H1395 | 0.723 | 0.831 | 0.735 | 0.728 | 0.774 | 0.45 | 0.477 | 0.498 | 0.396 | 0.44 | 0.626 | 0.605 | 0.612 | 0.601 | 0.598 | 1.12 | 0.889 | 1.09 | 1.04 | 1.05
14 | NCI-H1437 | 0.411 | 0.443 | 0.405 | 0.413 | 0.366 | 0.334 | 0.288 | 0.336 | 0.322 | 0.274 | 0.346 | 0.313 | 0.284 | 0.316 | 0.294 | 0.961 | 0.992 | 0.896 | 0.933 | 0.966
15 | NCI-H1651 | 0.696 | 0.737 | 0.643 | 0.632 | 0.683 | 0.338 | 0.292 | 0.362 | 0.344 | 0.296 | 0.499 | 0.505 | 0.523 | 0.527 | 0.545 | 1.03 | 0.812 | 0.937 | 0.945 | 1
16 | NCI-H1666 | 0.585 | 0.752 | 0.619 | 0.58 | 0.536 | 0.573 | 0.578 | 0.594 | 0.538 | 0.54 | 0.678 | 0.674 | 0.607 | 0.682 | 0.645 | 0.974 | 0.951 | 0.955 | 0.986 | 0.911
